Experimental data: ChEMBL document CHEMBL1201862, “PubChem BioAssay data set” (2004)
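Cultured in 96-well plates, cells were exposed to test compound for 48 hours across five concentrations. Abbreviation: GI50, concentration required for 50% inhibition of growth.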 Calls of active or inactive are those of the source. No stated cut-off is given here; in the data, active = GI50 up to about 1.1 µM and inactive = higher.

Columns and labels:
Test in all cases: NCI-60 cell line screen, 48 h
[1] = tested on: U-251
[2] = tested on: 786-0
[3] = tested on: SF-268
[4] = tested on: LOX IMVI
[5] = tested on: SK-MEL-2
[6] = tested on: OVCAR-5
[7] = tested on: SW-620
[8] = tested on: NCI-H522
[9] = tested on: Malme-3M
[10] = tested on: K562
[11] = tested on: COLO 205
[12] = tested on: CAKI-1
[13] = tested on: T47D
[14] = tested on: DU-145
[15] = tested on: NCI/ADR-RES
[16] = tested on: A498
[17] = tested on: PC-3
[18] = tested on: MCF7
[19] = tested on: Hs-578T

Measured: GI50

CCCC1C(=O)C(CC)Cc2c(OC)ccc(OC)c21 (stereo not drawn)
inactive: [1] > 100 µM | [2] > 100 µM | [3] > 100 µM | [4] > 100 µM | [5] > 100 µM | [6] > 100 µM | [7] > 100 µM | [8] > 100 µM | [9] > 100 µM | [10] > 100 µM | [11] > 100 µM | [12] > 100 µM

Cc1cc(C2CC(O)C(CO)O2)c(F)cc1F (stereo not drawn)
inactive: [1] > 100 µM | [2] > 100 µM | [3] > 100 µM | [13] > 100 µM | [4] > 100 µM | [14] > 100 µM | [6] > 100 µM | [15] > 100 µM | [16] > 100 µM | [17] > 100 µM | [7] > 100 µM | [8] > 100 µM | [9] > 100 µM | [10] > 100 µM | [11] > 100 µM | [18] > 100 µM | [12] > 100 µM

COC(=O)C([C@H]1CC[C@H](OCc2ccccc2)[C@@]1(O)COCc1ccccc1)C(C)(O)CCc1ccccc1 (stereo partly drawn)
inactive: [1] 11.6 µM | [2] 12.9 µM | [3] 4.01 µM | [4] 8.47 µM | [14] 24.2 µM | [5] 12.2 µM | [6] 13.5 µM | [15] 4.06 µM | [16] 15 µM | [17] 4.13 µM | [7] 13.5 µM | [8] 8.07 µM | [9] 11.5 µM | [10] 8.15 µM | [11] 12.2 µM | [18] 10.1 µM | [12] 57.9 µM

O=c1cc(/N=N/c2ccc(O)cc2)[nH]c(=O)[nH]1
inactive: [1] 60.8 µM | [2] 39.8 µM | [3] 40.5 µM | [4] 79.6 µM | [14] > 100 µM | [5] > 100 µM | [6] > 100 µM | [15] > 100 µM | [16] > 100 µM | [17] > 100 µM | [7] > 100 µM | [8] 31.7 µM | [9] 28.8 µM | [10] > 100 µM | [11] > 100 µM | [18] > 100 µM | [12] > 100 µM

C[C@H](CCC(=O)O)[C@H]1CC[C@H]2[C@@H]3[C@@H](O)C[C@@H]4C[C@H](O)CC[C@]4(C)[C@H]3CC[C@]12C [URSODIOL]
inactive: [1] > 100 µM | [2] > 100 µM | [3] > 100 µM | [13] > 100 µM | [4] > 100 µM | [14] > 100 µM | [5] > 100 µM | [6] > 100 µM | [15] > 100 µM | [16] > 100 µM | [17] > 100 µM | [7] > 100 µM | [8] > 100 µM | [9] > 100 µM | [10] 72.8 µM | [11] > 100 µM | [18] > 100 µM | [12] > 100 µM

CCOC(=O)N1c2c(c3ccccc3n2C(=O)OCC)C(=O)C(OC)N1C(=O)OCC (stereo not drawn)
inactive: [1] 27.1 µM | [2] 43.2 µM | [4] 18.1 µM | [14] 61.9 µM | [5] 16 µM | [6] 42 µM | [15] 22.9 µM | [16] 25.4 µM | [17] 21.6 µM | [7] 31.7 µM | [8] 13.3 µM | [19] 22.5 µM | [9] 31.9 µM | [10] 21.1 µM | [11] 15.5 µM | [18] 34.3 µM | [12] 28.8 µM
